The target in the experiment is T1, integrin α4β7 (Homo sapiens, UniProt P13612+P26010).
T1 construct: purchased R&D Systems 5397-A3-050
T1 sequence (P13612 34-970 limits assumed): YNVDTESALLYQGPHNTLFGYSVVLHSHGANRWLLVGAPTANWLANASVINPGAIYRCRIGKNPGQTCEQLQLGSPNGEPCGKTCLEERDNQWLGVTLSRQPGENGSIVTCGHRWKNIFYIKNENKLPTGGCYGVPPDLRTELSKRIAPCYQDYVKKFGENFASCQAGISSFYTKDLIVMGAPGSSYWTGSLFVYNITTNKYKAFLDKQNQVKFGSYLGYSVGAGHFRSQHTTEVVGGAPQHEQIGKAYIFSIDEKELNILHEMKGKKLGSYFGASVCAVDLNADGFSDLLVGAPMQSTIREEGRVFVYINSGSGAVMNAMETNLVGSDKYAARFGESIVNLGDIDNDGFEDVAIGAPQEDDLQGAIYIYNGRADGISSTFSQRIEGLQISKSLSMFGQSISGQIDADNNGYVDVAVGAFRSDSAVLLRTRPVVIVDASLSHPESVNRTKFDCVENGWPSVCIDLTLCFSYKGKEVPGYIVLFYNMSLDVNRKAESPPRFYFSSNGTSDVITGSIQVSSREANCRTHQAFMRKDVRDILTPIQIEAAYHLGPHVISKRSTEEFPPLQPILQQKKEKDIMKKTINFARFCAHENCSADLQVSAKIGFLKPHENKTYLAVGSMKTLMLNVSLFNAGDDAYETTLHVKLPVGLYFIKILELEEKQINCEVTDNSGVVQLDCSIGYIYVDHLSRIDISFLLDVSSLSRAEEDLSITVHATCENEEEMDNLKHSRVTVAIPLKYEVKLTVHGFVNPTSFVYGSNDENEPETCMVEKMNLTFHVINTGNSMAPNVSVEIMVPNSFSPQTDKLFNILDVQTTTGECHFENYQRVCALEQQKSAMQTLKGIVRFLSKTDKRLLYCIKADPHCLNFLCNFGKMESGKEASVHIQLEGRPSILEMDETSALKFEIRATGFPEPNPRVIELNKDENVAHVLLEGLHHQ
T1 sequence (P26010 20-723 limits assumed): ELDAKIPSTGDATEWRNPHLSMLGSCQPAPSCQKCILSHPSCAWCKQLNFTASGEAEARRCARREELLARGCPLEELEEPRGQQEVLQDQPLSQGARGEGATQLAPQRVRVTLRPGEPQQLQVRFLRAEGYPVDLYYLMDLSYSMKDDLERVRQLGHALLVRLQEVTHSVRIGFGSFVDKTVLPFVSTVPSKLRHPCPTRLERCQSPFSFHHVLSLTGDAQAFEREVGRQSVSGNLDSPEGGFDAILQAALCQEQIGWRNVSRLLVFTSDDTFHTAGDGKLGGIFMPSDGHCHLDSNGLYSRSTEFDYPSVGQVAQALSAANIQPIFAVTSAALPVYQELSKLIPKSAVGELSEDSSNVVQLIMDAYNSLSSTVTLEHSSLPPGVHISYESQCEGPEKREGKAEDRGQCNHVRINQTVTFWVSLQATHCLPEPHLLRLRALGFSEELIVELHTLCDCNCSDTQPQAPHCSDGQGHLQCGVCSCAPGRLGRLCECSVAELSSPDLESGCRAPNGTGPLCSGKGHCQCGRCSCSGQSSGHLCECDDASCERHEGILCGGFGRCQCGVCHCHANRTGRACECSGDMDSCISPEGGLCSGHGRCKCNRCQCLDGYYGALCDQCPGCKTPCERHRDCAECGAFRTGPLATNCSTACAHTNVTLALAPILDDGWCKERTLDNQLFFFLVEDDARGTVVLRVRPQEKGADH
Briefly: Integrin α4β7-MAdCAM-1 ELISA competition assay. It is filed as binding. Conditions: values of the second run. As to the method:
Integrin α4β7-MAdCAM-1 ELISA Competition Assay
A 96-well Microlon plate (Greiner, 655001) was coated with 100 μl per well of a solution of 1 μg/ml recombinant integrin α4β7 (R&D Systems, 5397-A3-050) in carbonate buffer (50 mM, pH 9.6). The plate was incubated at 4′C overnight. The solution was removed and 250 μl blocking buffer (50 mM Tris, 150 mM NaCl, 1 mM MnCl2, 1% BSA, 0.05% Tween) was added per well. The plate was then incubated for 1 hour at room temperature. The plate was washed three times with wash buffer (50 mM Tris, 100 mM NaCl, 1 mM MnCl2, 0.05% Tween). To each well, 50 μl of compound diluted in assay buffer was added by transfer from a compound serial dilution plate. 50 μl recombinant MAdCAM-Fc (R&D systems, 6056-MC-050) at a concentration of 0.1 μg/ml in assay buffer (50 mM Tris, 150 mM NaCl, 1 mM MnCl2, 0.1% BSA, 0.05% Tween) was added to each well. The plate was incubated at room temperature with shaking (300 rpm) for 2 hours to reach binding equilibrium. Then the plate was washed three times in wash buffer and 100 μl anti-human IgG Fc specific-HRP (Abcam, Ab97225) diluted at 1:2000 in assay buffer was added to each well. The plate was incubated at room temperature for 1 hour under agitation. […] The reaction was stopped after 2 minute-incubation by adding 50 μl of 1M H2SO4 and optical absorbance was read at 450 nm.
For orientation: In an ELISA, binding on a coated surface is turned into a signal by an enzyme label.

Here are results for one molecule from US11286281B2, “Homodetic cyclic peptides targeting alpha-4-beta-7 integrin” (priority 2017, dated 2022).

Numbered stars: 1 amine (or outer) side, 2 acyl side, 3 side chain; on linkers, the order of the positions; unused ones are H or OH. Square brackets hold non-standard residues; d marks the D form. Peptide text beside a SMILES is read from it. X1 = O=C(c1ccc(-c2ccc(N3CCNCC3)cc2)c(CN[*:1])c1)[*:2]

As usually defined, the IC50 is the concentration at which inhibition is half-maximal. A higher IC50 goes with a need for much substance. `CC(C)C[C@@H]1NC(=O)c2ccc(-c3ccc(N4CCNCC4)cc3)c(c2)CNC(=O)[C@@H]2CCCN2C(=O)[C@H](C)NC(=O)[C@H]([C@@H](C)O)NC(=O)[C@H](CC(=O)O)NC1=O` [Compound 8] (cyclo(P[X1]LDTA)) returned an IC50 of approximately 24 nM.
